Assay results published in PubChem BioAssay (NCI).
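Results reflect a 48-hour exposure of cells in 96-well plates to compound at five concentrations. GI50 = concentration required for 50% inhibition of growth. TGI: concentration producing complete growth inhibition.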

Assays:
Experiment in all cases: NCI anticancer screen, dose series, 48 h
786-0 renal = tested on: 786-0 renal
M14 melanoma = tested on: M14 melanoma
SNB-75 CNS = tested on: SNB-75 CNS
SF-295 CNS = tested on: SF-295 CNS
SF-539 CNS = tested on: SF-539 CNS
HOP-62 NSCLC = tested on: HOP-62 NSCLC
SK-MEL-28 melanoma = tested on: SK-MEL-28 melanoma
EKVX NSCLC = tested on: EKVX NSCLC
HS 578T breast = tested on: HS 578T breast
PC-3 prostate = tested on: PC-3 prostate
SK-MEL-5 melanoma = tested on: SK-MEL-5 melanoma
UACC-257 melanoma = tested on: UACC-257 melanoma
UO-31 renal = tested on: UO-31 renal
RXF 393 renal = tested on: RXF 393 renal
CAKI-1 renal = tested on: CAKI-1 renal
UACC-62 melanoma = tested on: UACC-62 melanoma
IGROV1 ovarian = tested on: IGROV1 ovarian
DU-145 prostate = tested on: DU-145 prostate
HOP-92 NSCLC = tested on: HOP-92 NSCLC
MCF7 breast = tested on: MCF7 breast
OVCAR-5 ovarian = tested on: OVCAR-5 ovarian
NCI-H23 lung = tested on: NCI-H23 lung
LOX IMVI melanoma = tested on: LOX IMVI melanoma
A498 renal = tested on: A498 renal
SF-268 CNS = tested on: SF-268 CNS
BT-549 breast = tested on: BT-549 breast
OVCAR-8 ovarian = tested on: OVCAR-8 ovarian
RPMI-8226 leukemia = tested on: RPMI-8226 leukemia
A549 NSCLC = tested on: A549 NSCLC
SK-OV-3 ovarian = tested on: SK-OV-3 ovarian
NCI-H460 lung = tested on: NCI-H460 lung
HL-60(TB) leukemia = tested on: HL-60(TB) leukemia
SNB-19 CNS = tested on: SNB-19 CNS
MALME-3M melanoma = tested on: MALME-3M melanoma
ACHN renal = tested on: ACHN renal
HCT-15 colon = tested on: HCT-15 colon
OVCAR-3 ovarian = tested on: OVCAR-3 ovarian
NCI-H226 lung = tested on: NCI-H226 lung
KM12 colon = tested on: KM12 colon
COLO 205 colon = tested on: COLO 205 colon
MDA-MB-231 breast = tested on: MDA-MB-231 breast
T-47D breast = tested on: T-47D breast
MDA-MB-435 = tested on: MDA-MB-435
NCI/ADR-RES ovarian = tested on: NCI/ADR-RES ovarian
HT29 colon = tested on: HT29 colon
OVCAR-4 ovarian = tested on: OVCAR-4 ovarian
MOLT-4 leukemia = tested on: MOLT-4 leukemia
NCI-H522 lung = tested on: NCI-H522 lung
SK-MEL-2 melanoma = tested on: SK-MEL-2 melanoma
SW-620 colon = tested on: SW-620 colon
CCRF-CEM leukemia = tested on: CCRF-CEM leukemia
TK-10 renal = tested on: TK-10 renal
K-562 leukemia = tested on: K-562 leukemia
HCC-2998 colon = tested on: HCC-2998 colon
U251 CNS = tested on: U251 CNS
SN12C renal = tested on: SN12C renal

Compound: Clc1nc(Cl)c2ncn(C/C=C\COc3cccc(OC/C=C\Cn4cnc5c(Cl)nc(Cl)nc54)c3)c2n1
- GI50 (786-0 renal): > 100 µM
- TGI (786-0 renal): > 100 µM
- GI50 (M14 melanoma): > 100 µM
- TGI (M14 melanoma): > 100 µM
- GI50 (SNB-75 CNS): > 100 µM
- TGI (SNB-75 CNS): > 100 µM
- GI50 (SF-295 CNS): > 100 µM
- TGI (SF-295 CNS): > 100 µM
- GI50 (SF-539 CNS): > 100 µM
- TGI (SF-539 CNS): > 100 µM
- GI50 (HOP-62 NSCLC): > 100 µM
- TGI (HOP-62 NSCLC): > 100 µM
- GI50 (SK-MEL-28 melanoma): > 100 µM
- TGI (SK-MEL-28 melanoma): > 100 µM
- GI50 (EKVX NSCLC): > 100 µM
- TGI (EKVX NSCLC): > 100 µM
- GI50 (HS 578T breast): > 100 µM
- TGI (HS 578T breast): > 100 µM
- GI50 (PC-3 prostate): > 100 µM
- TGI (PC-3 prostate): > 100 µM
- GI50 (SK-MEL-5 melanoma): > 100 µM
- TGI (SK-MEL-5 melanoma): > 100 µM
- GI50 (UACC-257 melanoma): > 100 µM
- TGI (UACC-257 melanoma): > 100 µM
- GI50 (UO-31 renal): > 100 µM
- TGI (UO-31 renal): > 100 µM
- GI50 (RXF 393 renal): 48.8 µM
- TGI (RXF 393 renal): > 100 µM
- GI50 (CAKI-1 renal): > 100 µM
- TGI (CAKI-1 renal): > 100 µM
- GI50 (UACC-62 melanoma): > 100 µM
- TGI (UACC-62 melanoma): > 100 µM
- GI50 (IGROV1 ovarian): > 100 µM
- TGI (IGROV1 ovarian): > 100 µM
- GI50 (DU-145 prostate): > 100 µM
- TGI (DU-145 prostate): > 100 µM
- GI50 (HOP-92 NSCLC): > 100 µM
- TGI (HOP-92 NSCLC): > 100 µM
- GI50 (MCF7 breast): > 100 µM
- TGI (MCF7 breast): > 100 µM
- GI50 (OVCAR-5 ovarian): > 100 µM
- TGI (OVCAR-5 ovarian): > 100 µM
- GI50 (NCI-H23 lung): > 100 µM
- TGI (NCI-H23 lung): > 100 µM
- GI50 (LOX IMVI melanoma): 19.3 µM
- TGI (LOX IMVI melanoma): 43.8 µM
- GI50 (A498 renal): > 100 µM
- TGI (A498 renal): > 100 µM
- GI50 (SF-268 CNS): > 100 µM
- TGI (SF-268 CNS): > 100 µM
- GI50 (BT-549 breast): > 100 µM
- TGI (BT-549 breast): > 100 µM
- GI50 (OVCAR-8 ovarian): > 100 µM
- TGI (OVCAR-8 ovarian): > 100 µM
- GI50 (RPMI-8226 leukemia): > 100 µM
- TGI (RPMI-8226 leukemia): > 100 µM
- GI50 (A549 NSCLC): > 100 µM
- TGI (A549 NSCLC): > 100 µM
- GI50 (SK-OV-3 ovarian): > 100 µM
- TGI (SK-OV-3 ovarian): > 100 µM
- GI50 (NCI-H460 lung): > 100 µM
- TGI (NCI-H460 lung): > 100 µM
- GI50 (HL-60(TB) leukemia): > 100 µM
- TGI (HL-60(TB) leukemia): > 100 µM
- GI50 (SNB-19 CNS): > 100 µM
- TGI (SNB-19 CNS): > 100 µM
- GI50 (MALME-3M melanoma): > 100 µM
- TGI (MALME-3M melanoma): > 100 µM
- GI50 (ACHN renal): > 100 µM
- TGI (ACHN renal): > 100 µM
- GI50 (HCT-15 colon): > 100 µM
- TGI (HCT-15 colon): > 100 µM
- GI50 (OVCAR-3 ovarian): > 100 µM
- TGI (OVCAR-3 ovarian): > 100 µM
- GI50 (NCI-H226 lung): 43.3 µM
- TGI (NCI-H226 lung): > 100 µM
- GI50 (KM12 colon): > 100 µM
- TGI (KM12 colon): > 100 µM
- GI50 (COLO 205 colon): > 100 µM
- TGI (COLO 205 colon): > 100 µM
- GI50 (MDA-MB-231 breast): > 100 µM
- TGI (MDA-MB-231 breast): > 100 µM
- GI50 (T-47D breast): 88.1 µM
- TGI (T-47D breast): > 100 µM
- GI50 (MDA-MB-435): > 100 µM
- TGI (MDA-MB-435): > 100 µM
- GI50 (NCI/ADR-RES ovarian): > 100 µM
- TGI (NCI/ADR-RES ovarian): > 100 µM
- GI50 (HT29 colon): > 100 µM
- TGI (HT29 colon): > 100 µM
- GI50 (OVCAR-4 ovarian): > 100 µM
- TGI (OVCAR-4 ovarian): > 100 µM
- GI50 (MOLT-4 leukemia): > 100 µM
- TGI (MOLT-4 leukemia): > 100 µM
- GI50 (NCI-H522 lung): > 100 µM
- TGI (NCI-H522 lung): > 100 µM
- GI50 (SK-MEL-2 melanoma): > 100 µM
- TGI (SK-MEL-2 melanoma): > 100 µM
- GI50 (SW-620 colon): > 100 µM
- TGI (SW-620 colon): > 100 µM
- GI50 (CCRF-CEM leukemia): 95.8 µM
- TGI (CCRF-CEM leukemia): > 100 µM
- GI50 (TK-10 renal): > 100 µM
- TGI (TK-10 renal): > 100 µM
- GI50 (K-562 leukemia): 53.8 µM
- TGI (K-562 leukemia): > 100 µM
- GI50 (HCC-2998 colon): > 100 µM
- TGI (HCC-2998 colon): > 100 µM
- GI50 (U251 CNS): > 100 µM
- TGI (U251 CNS): > 100 µM
- GI50 (SN12C renal): > 100 µM
- TGI (SN12C renal): > 100 µM
